Legend:
[1] = Inhibition of homologous location truncated N-terminal His-tagged Plasmodium falciparum DHODH expressed in Escherichia coli pyrD Sphi6745 by spectrophotometric analysis
[2] = molecular target: Dihydroorotate dehydrogenase (quinone), mitochondrial (Homo sapiens, UniProt Q02127); assay: Inhibition of homologous location truncated N-terminal His-tagged human DHODH expressed in Escherichia coli pyrD Sphi6745 by spectrophotometric analysis
[3] = Selectivity ratio of IC50 for homologous location truncated N-terminal His-tagged human DHODH to IC50 for homologous location truncated N-terminal His-tagged Plasmodium falciparum DHODH

Sequence of Dihydroorotate dehydrogenase (quinone), mitochondrial (Q02127 whole entry, the tested form may be a part): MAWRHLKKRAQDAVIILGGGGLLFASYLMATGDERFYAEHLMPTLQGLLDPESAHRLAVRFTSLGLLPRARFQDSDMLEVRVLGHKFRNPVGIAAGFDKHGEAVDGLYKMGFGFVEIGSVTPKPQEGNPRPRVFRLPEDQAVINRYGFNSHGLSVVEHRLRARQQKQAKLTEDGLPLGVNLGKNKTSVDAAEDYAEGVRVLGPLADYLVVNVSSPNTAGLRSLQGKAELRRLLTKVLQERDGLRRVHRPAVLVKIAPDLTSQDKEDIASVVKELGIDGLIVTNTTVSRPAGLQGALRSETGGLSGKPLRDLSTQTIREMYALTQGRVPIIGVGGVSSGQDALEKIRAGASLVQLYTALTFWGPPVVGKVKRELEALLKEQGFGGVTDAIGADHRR

| Compound | IC50 [1] | IC50 [2] | Ratio IC50 [3] | Ki [1] |
| --- | --- | --- | --- | --- |
| CCOC(=O)/C(C#N)=C(/C)Nc1ccc2c(c1)c1ccccc1n2CC | > 100000 nM | – | – | – |
| CCOC(=O)/C(C#N)=C(/C)Nc1ccc2sc3ccccc3c2c1 | > 100000 nM | – | – | – |
| CCOC(=O)C(=CNc1ccc2c(c1)c1ccccc1n2CC)C(=O)OCC | 4400 nM | – | – | – |
| CCOC(=O)C(=CNc1ccc2sc3ccccc3c2c1)C(=O)OCC | 160 nM | – | – | 20 nM |
| CCOC(=O)/C(=C/Nc1ccc2c(c1)c1ccccc1n2CC)[N+](=O)[O-] | 94 nM | > 100 µM | – | 37 nM |
| CC(=O)C(=CNc1ccc2sc3ccccc3c2c1)C(C)=O | > 100000 nM | – | – | – |
| CCn1c2ccccc2c2cc(NC=C3C(=O)OC(C)(C)OC3=O)ccc21 | > 100000 nM | – | – | – |

The next lines start with results.

| IC50 [1] | IC50 [2] | Ratio IC50 [3] | Compound | Ki [1] |
| --- | --- | --- | --- | --- |
| > 100000 nM | – | – | CCn1c2ccccc2c2cc(NC=C(C(C)=O)C(C)=O)ccc21 | – |
| 1200 nM | – | – | CCOC(=O)/C(C#N)=C\Nc1ccc2sc3ccccc3c2c1 | – |
| > 100000 nM | – | – | CC1(C)OC(=O)C(=CNc2ccc3sc4ccccc4c3c2)C(=O)O1 | – |
| 280 to 440 nM | – | 1000 | CCOC(=O)/C(C#N)=C\Nc1ccc2c(c1)c1ccccc1n2CC | 50 nM |
| 380 nM | > 100 µM | – | CCOC(=O)/C(=C\Nc1ccc2sc3ccccc3c2c1)[N+](=O)[O-] | 150 nM |

Source: ChEMBL document CHEMBL4052731, “Interconvertible geometric isomers of Plasmodium falciparum dihydroorotate dehydrogenase inhibitors exhibit multiple binding modes” (Bioorg Med Chem Lett, 2017)
